Results taken from PMC8834506, “Optimization of Thymidine Kinase-Based Safety Switch for Neural Cell Therapy” (Cells, 2022).

Columns and labels:
[1] = tested on: sister chromatid exchange; design: method as in PMID 10719044; conditions: at concentrations far below those impairing the proliferative activity; cited from earlier work
[2] = tested on: Ubi-SR39h post-mitotic neurons differentiated from ReNcells; assay type: cell-based, human
Method: Figure 4 EC50 and kinetics of GCV-induced cell death in proliferating and post-mitotic ReNcells. SR39h was expressed in ReNcells (immortalized neural precursor cells that can be differentiated to post-mitotic neurons) under the control of the two different promoters: Ki67 or ubiquitin. Wild type ReNcells were used as control. […] (B–D) Kinetics of cell death of SR39-expressing ReNcells cells either under the control of cycle promoter Ki67 or ubiquitin promoter with increasing GCV concentrations of 1, 10, and 100 µM. Cell viability was measured every 24 h using a bioluminescent ATP-based assay (n = 3). (E) ReNcells were differentiated toward post-mitotic neurons for 21 days then treated with GCV for 10 days. Cell viability was measured using an ATP-based assay. Results are mean + SD of three independent experiments performed in triplicates. […]
Cell culture plate (96 wells plate Corning #3907, Corning, Lonay, Switzerland) were pre-coated with 60 μL per well of Poly-L-ornithine solution (Sigma, Merk, Eysins, Switzerland) at 37 °C for 30 min. […] For EC50 assays, the medium was changed daily for 4 days, then cell viability was assessed using an ATP-based assay. EC50 values for each construct were calculated using a four parameters equation (GraphPad, Prism8, San Diego, CA, USA). […] Luminescence was measured using Spectra L384/L96 (0.2 sec exposure, Molecular devices, Biberach an der Riß, Germany). […]

[3] = tested on: non-transduced hESC colonies; test: Morphology and size of hESC colonies upon nucleoside treatment; assay type: cell-based, human
Source text: We next investigated the impact of ACV, PCV, and GCV on non-transduced hESC and neuroprogenitors (proliferating ReNcells). […] To further understand the impact of nucleoside analogs on non-transduced cells, we performed γ-H2A.X immunostaining (Figure 6B). There was a graded response, virtually identical in hESC and in neuroprogenitors. […] In addition, we investigated the morphology and size of non-transduced hESC colonies upon nucleoside treatment. […] Taken together, our findings confirm considerable toxicity of GCV, even in the absence of viral TK. Note that this was not the case for PCV despite the fact that it is a potent inducer of cell death in thymidine kinase-expressing cells.
Cells were exposed to 100 µM of the respective nucleoside for 48 h. DNA damage was monitored using γ-H2A.X marker in yellow and nuclei were counterstained with Hoechst. The white box in the first column indicates the area of the zoom for the hESC colonies.

host cell DNA = conditions: cited from earlier work

## Nc1nc(O)c2ncn(COC(CO)CO)c2n1 [GCV, ganciclovir]
[1]
  Induction of sister chromatid exchange: potent inducer of sister chromatid exchange
[2]
  Cell death in post-mitotic neurons (in words): killed
[2]; human, 10 days
  GCV concentration from which cell death induction was detected: ≥ 10 µM
[3]
  Effect on morphology and size of colonies: smaller colonies
Host cell DNA
  Fragmentation of host cell DNA: induce fragmentation of host cell DNA
